Patent publication US12331042B2, “Compounds suitable for the treatment and prophylaxis of muscle wasting and other conditions” (priority 2019, dated 2025)
“Also recorded” adds a separate entry of the source.

How the values were obtained:
MuRF1 E3 ligase activity = MuRF1 E3 ligase activity (Homo sapiens, UniProt Q969Q1); test: Inhibition of MuRF1 E3 ligase activity (ubiquitination, Western blot); format: biochemical; conditions: 20-100 μmol/L compound, 1 h at 37° C., based on ubiquitination patterns
Protocol: Compounds were then assessed for effects on MuRF1 E3 ligase activity directed to titin or to MuRF1 itself (self-ubiquitination) by mixing 75 nmol/L UBE1 (Boston Biochem), 1 μmol/L UbcH5c (Boston Biochem), 100 μmol/L Ubiquitin, 4 mmol/L ATP, 100 nmol/L Titin A168-170 with 20-100 μmol/L of respective compounds. Reactions were started by addition of 220 nmol/L MuRF1, followed by 1 h at 37° C., SDS PAGE and Western blot analysis with MuRF1 and titin specific antibodies. All reactions also included 5% DMSO.

[1] = tested on: monocrotaline (MCT)-treated C57BL/6 mice; test: Pulmonary hypertension mouse model, test series 2; format: in vivo; conditions: MCT+compound (0.1 weight-% in chow) vs MCT, 8 weeks
Protocol: The test series 2 were performed analogous to test series 1. Briefly, Three groups of mice were included in this study: 1) saline-treated mice (sham; n=10); 2) monocrotaline (MCT)-treated mice fed with normal chow (MCT; n=10); and 3) MCT-treated mice fed with MuRF1 inhibitor chow (MCT+compound; n=10 for each compound). 8 weeks old C57BL/6 mice were subcutaneously injected weekly with either MCT (600 mg/kg) or a matched volume of saline for 8 weeks. The MCT+compound group started receiving the inhibitor chow 1 week prior to the MCT injections, whereas the sham and MCT groups were fed an identical chow but without the addition of the selected compound. The compound concentration in the chow was 0.1 weight-%, resulting in a daily compound intake per mouse of about 3 mg. Body weight was recorded every week for each mouse. Mice were sacrificed after 8 weeks treatment. At sacrifice, examination and tissue analysis were performed as described in test series 1.

ICR-DIO male mice = test: Glucose and insulin regulation in DIO mice (fasting glucose, OGTT, ITT); format: in vivo
Excerpt: Analogously to example 2.7, diabetes was induced by a high-fructose high-fat diet (HFD) for 4 months in DIO mice. The mice developed increased fasting glucose and insulin resistance. Control group animals received a normal rodent diet (regular diet). Weight loss was then induced during a 30 days test period. In a first stage, the animals were fed normal rodent diet for 16 days. Then in a second stage the animals received a low-calory diet for 14 days. Two days after start of the first stage, the diet was supplemented with MyoMed-203 (at 1 g compound/1 kg food).
Test design: ICR-DIO male mice were randomly assigned to groups of 8-10 animals each. Three control groups were included: Control group of mice without obesity (control; regular diet (RD); n=10), obese mice fed with high-fructose high-fat diet during the entire study period (DIO HFD; n=8); and obese mice with initiated weight loss (DIO control; n=8).
Determining the level of blood glucose was performed after 6-hour fasting. An On Call Plus glucometer (Acon Laboratories, Inc., USA) and specific test strips (REF G133-111) were used for determination of glucose levels. Blood was obtained from the tail vein by incision of the tail tip. 5-6 μl of blood were used for each assay.
For oral glucose tolerance test (OGTT), mice were orally treated with glucose at dose of 2 g/kg at the dose volume of 10 ml/kg after a 6-hour fasting. Glucose measurements were performed immediately before treatment and at 15, 30, 60 and 120 min after glucose administration. The AUC describing the rate of blood glucose output in each mouse during the test was calculated using the formula: […]
For insulin tolerance test (ITT), mice were injected intraperitoneally with recombinant human insulin solution (Lilly, France; REF C620001K) at the dose of 0.75 or 0.60 IU/[…] of body weight in the volume of 5 ml/kg after 6-hour fasting. Glucose measurements were performed immediately before treatment and at 15, 30, 60 and 120 min after insulin administration. The results of the rate of blood glucose output were expressed as area under the curve (AUC).

Sequence of MuRF1 E3 ligase activity (Q969Q1 whole entry): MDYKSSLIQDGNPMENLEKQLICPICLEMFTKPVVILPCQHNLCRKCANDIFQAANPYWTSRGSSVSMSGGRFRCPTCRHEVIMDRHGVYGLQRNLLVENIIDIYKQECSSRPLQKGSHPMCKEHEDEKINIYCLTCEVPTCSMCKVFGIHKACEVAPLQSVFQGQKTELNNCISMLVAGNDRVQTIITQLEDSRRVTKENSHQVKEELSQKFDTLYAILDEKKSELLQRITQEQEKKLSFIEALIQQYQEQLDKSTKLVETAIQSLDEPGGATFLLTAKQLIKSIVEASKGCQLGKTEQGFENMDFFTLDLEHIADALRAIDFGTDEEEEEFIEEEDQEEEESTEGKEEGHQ

SMILES: Cc1cc(=O)oc2cc(OCc3ccc(C(=O)OC(C)C(=O)NC(N)=O)cc3)ccc12 (stereo not shown) [MyoMed-946-5, (1-methyl-2-oxo-2-ureido-ethyl) 4-[(4-methyl-2-oxo-chromen-7-yl)oxymethyl]benzoate]
- inhibition of MuRF1 E3 ligase activity (MuRF1 E3 ligase activity): significantly inhibit MuRF1 E3 ligase activity

SMILES: CNC(=O)NC(=O)C(C)OC(=O)c1ccc(COc2ccc3c(C)cc(=O)oc3c2)cc1 (stereo not shown) [MyoMed-946-8, [1-methyl-2-(methylcarbamoylamino)-2-oxo-ethyl] 4-[(4-methyl-2-oxo-chromen-7-yl)oxymethyl]benzoate]
- inhibition of MuRF1 E3 ligase activity (MuRF1 E3 ligase activity): significantly inhibit MuRF1 E3 ligase activity

SMILES: Cc1cc(=O)oc2cc(OCc3ccc(C(=O)OCC(=O)NC(=O)NCc4ccccn4)cc3)ccc12 [MyoMed-203, [2-oxo-2-(2-pyridylmethylcarbamoylamino)ethyl] 4-[(4-methyl-2-oxo-chromen-7-yl)oxymethyl]benzoate]
- loss of skeletal muscle mass (EDL, TA wet weight; diaphragm maximum force) [1]: most pronounced effect
- right ventricle hypertrophy [1]: attenuated; also recorded: attenuate the development of right ventricle hypertrophy
- blood glucose level after 6-hour fasting (ICR-DIO male mice; 1 g compound/1 kg food, vs DIO control, throughout the treatment period): significantly lower
- hypoglycemic effect according to OGTT (ICR-DIO male mice; after 14 days of weight loss and treatment): mild hypoglycemic effect
- blood glucose at 30 minutes of OGTT (ICR-DIO male mice; day 14, vs DIO control): tended to be lower
- OGTT calculated area under the glucose elimination curve (ICR-DIO male mice; day 28): tended to be lower
- glucose level at 120 min of OGTT (ICR-DIO male mice; day 28, vs all control groups): significant decrease in the glucose level
- glucose level at 120 minutes after insulin injection (ITT) (ICR-DIO male mice; vs all control groups): significant decrease of glucose level
